Data published in patent publication US9072729B2, “Method for treating fibrosis and cancer with imidazolium and imidazolinium compounds” (Agency for Science, Technology and Research, priority 2008, dated 2015).

Tests used:
MKN 28 = test: Growth inhibition assay (MTT), MKN 28; assay type: cell-based, human; settings: MKN 28, 72 h
Method: (§4) The percentage of growth inhibition was determined by using a MTT assay to measure viable cells. For the MTT assay, 1×10^3 cells per well were cultured in 96-well plates and treated with 0 to 100 μM of various types of IMSs for 72 h. After incubation for specified times at 37° C. in a humidified incubator, culture medium replaced with 10 μL of MTT reagent (5 mg/mL) contains 100 μL medium was added to each well and further incubated for 4 h. The reaction was stopped by adding 100 μL of DMSO. Absorbance was measured at 570 nm on a micro plate reader (SpectroMax 190, Molecular Devices). Data were presented from three separate experiments, and the percentage of IMSs induced cell growth inhibition was determined where DMSO-treated cells (control) were taken as 100%.
(§5) First, the cytotoxic effect of these drugs on these cells was investigated using the MTT assay. Cells were seeded into 96 well plates and treated with increasing concentrations of these synthetic organic molecules for 72 h, and then the cytotoxic effect was measured.

MDAMB231 = test: Growth inhibition assay (MTT), MDAMB231; assay type: cell-based, human; settings: MDAMB231, 72 h
Method: as §4, §5

MCF-10A = test: Growth inhibition assay (MTT), MCF-10A; settings: 72 h
Method: as §4, §5

HLE cells [1] = test: Growth inhibition assay (MTT), HLE; assay type: cell-based, human; settings: Homo sapiens
Method: The effect of IMSs (IBN-15, IBN-19, IBN-24, IBN-25 and IBN-32) on the proliferative properties of p53 mutant cell line HLE was examined. The cytotoxicity activity and proliferation inhibition of IMSs in tumor cells were measured by MTT. […] The control experiments with DMSO alone (0.05% v/v) had no effect on cell proliferation. […] (Table 4) Microscopic observation on the cell cultures visually confirmed the inhibition on cell proliferation by IMSs. (FIG. 35)

HLE cells [2] = test: Cell cycle analysis (PI flow cytometry); assay type: cell-based, human; settings: 72 h
Method: FIG. 37. IMSs arrest Hepatocarcinoma cells. Cells were treated with vehicle and IBN 15, IBN 19, IBN 24, IBN 25 and IBN 32 for 72 h, and cell cycle distribution was assessed by flow cytometry. A) Example FACS profiles of propidium iodide-stained control cells, and cells treated with IMSs respectively. B) % of cells in cell cycle phase C) % of cells in subG0 population. Each value is the mean±S.D. of three determinations.
To perform cell cycle distribution analysis, 4×10^5 cells were plated in 10 cm dish. The cells (70% confluence) were serum-starved for 24 h to synchronize them in the G0 phase of the cell cycle. After 24 h incubation, the cells were replaced with fresh 10% DMEM medium and then treated 60 μM of IBN-15, 90 μM of IBN-19, 90 μM of IBN-24, 30 μM of […] and 20 μM of IBN-32) and 0.045% DMSO as control for 72 h. The floating and trypsinized adherent cells were collected and washed with PBS. The cell pellets were resuspended in 1 ml of PBS and fixed by the addition of 70% ice-cold ethanol and stored at −20° C. After incubation for 24 hr, the cells were re-pelleted by centrifugation, the cells were washed once with PBS and resuspended in 0.1 mL of PBS containing 100 μg/ml of RNase and then incubated at 37° C. for 15 min. Finally, the cells were stained with 0.5 ml of PI solution (100 μg/mL in PBS) for 30 min. Cell cycle distribution was detected by a BD FACS array flow cytometer (Becton Dickinson). Cells with sub-G0 DNA were classified as apoptotic cells.

[3] = test system: caspase 3, caspase 9 and PARP; test: Western blot of caspase-3, caspase-9 and PARP cleavage in HLE; assay type: cell-based, human; settings: 72 h
Method: FIG. 38. IMSs, induce cleavage of caspase-3, caspase-9 and PARP. Western blot analysis for the effect of IBN 15, IBM 19, IBN 24, IBM 25, IBN 32 on the cleavage of caspase-3, Caspase-9 and PARP in HLE cells after 72 h exposure to indicated doses of IMSs.
The HLE cells were seeded at a density of 4×10^5 in 10 cm dish. After 24 h incubation, the cells were replaced with fresh 10% DMEM medium and then treated with 60 μM of IBN-15, 90 μM of IBN-19, 90 μM of IBN-24, 30 μM of IBN-25 and 20 μM of IBN 32 and 0.045% DMSO as control for 72 h. Whole cell lysates were prepared on day 3 with lysis buffer [125 mM Tris (pH 7.4), 2% Sodium dodecyl sulfate, 10% glycerol, 6M urea and a protease inhibitor cocktail (Sigma) and 0.02% Bromophenol blue]. The lysates were sonicated for 30 seconds and then heated for 5 mins at boiling temperature. The lysates were centrifuged at 13000 rpm for 10 mins and the protein concentration of each sample was estimated using the BCA protein assay. The lysates was then mixed with 5% 2-mercaptoethanol and stored at −80 C. For Western blotting, samples containing 50 μg of total cell lysate were loaded onto a SDS-PAGE and subjected to electrophoresis. Proteins were transferred to a nitrocellulose membrane and then blocked with 5% non-fat dry milk in Tris buffer saline containing 0.1% Tween 20 for 60 min at 37 C. The membranes were probed with a primary antibody overnight at 4 C in TEST containing 5% Bovine serum albumin. Then the membrane was incubated with horseradish peroxidase (HRP)-conjugated anti-rabbit or anti-mouse secondary antibodies (GE Health care, Chalfont St Giles, UK). Detection was performed with enhanced chemiluminescence (ECL) reagent (Amersham Arlington Heights, Ill.) according to the manufacturer's protocol. Rabbit polyclonal Phospho-p53 (Ser15, 20, 46, 392), anti-caspase-9, anti-caspase-3, anti-PARP antibodies were purchased from Cell Signaling Technology, Inc. (Beverly, Mass., USA). Antibodies against p53 and p21 were purchased from Santa Cruz Biotechnology (Santa Cruz, Calif., USA).

[4] = test system: p53 signaling pathway-associated gene expression in HLE cells; test: Real-time PCR array of p53 signaling pathway-associated genes; assay type: cell-based, human; settings: 48 h
Method: FIG. 42. Real-Time PCR array analysis of p53 signaling pathway-associated gene expression. (A) Anti-apoptotic genes. (B) Growth inhibition gene SESN2. (C) Cell cycle check point genes. (D) Cell proliferation genes. (E) DNA repair gene ATM. The relative level of gene expression was normalized with housekeeping gene GAPDH. Values are expressed as mean±standard deviation.
Cells were seeded at a density of 4×10^5 cells per dish in 10 cm dishes. Next day, the cells were exposed to 90 uM of IBN-19, 90 uM of IBN-24, 40 uM of IBN-25 and 0.045% of DMSO (Dimethyl Sulphoxide) as the control. After 48 hrs, total RNAs were extracted from the cells using Nucleospin RNA II kit as per the manufacturer's istructions. RNA quality and yield were evaluated after spectrophotometer measurements.
The human apoptosis PCR array (RT^2 Profiler) was used to analyze mRNA levels of 84 key genes involved in apoptosis, in a 96-well format, according to the manufacturer's instructions (Super Array Bioscience). First-strand cDNA was synthesized with 1 μg of RNA by using a PCR array first strand-synthesis kit (C-03; Super array Bioscience). This kit uses reverse transcriptase (Power Script; Super array Bioscience) and a combination of random primers and oligo dT primers. The total volume of the reaction was 20 μL diluted to 100 μL. PCR reactions were performed using real-time PCR (79s00HT 96-well block with RT^2 Real-Time SYBR Green PCR master mix PA-012; Applied Biosystems Instruments 7500). The total volume of the PCR reaction was 25 μl. An equivalent of […] of RNA was applied to the PCR reaction. The thermocycler parameters were 95° C. for 10 minutes, followed by 40 cycles of 95° C. for 15 seconds and 60° C. for 1 minute. Relative changes in gene expression were calculated using the ΔΔCt (cycle threshold) method. An average of the number of cycles of the five housekeeping genes, GAPDH, Actin-β, β2m, Hprt1, and Rpl13d, was used to normalize the expression between samples. The expression data are presented as fold regulation. GAPDH gene expression levels were utilized as an internal control to normalize the data. Reported fold changes in expression are the ratios of treatment over control values.
To obtain more information on how the IMSs influence other gene expression in the HLE cells, 84 genes related to p53 signal transduction were profiled by using the RT^2 Profiler array (Super Array Bioscience) (FIG. 42A, B, C, D, E). The array includes keys genes relevant to p53, apoptosis, cell cycle, cell growth, proliferation, differentiation, and DNA repair.

Huh7 cells = test: HCC xenograft model (Huh7 cells in Balb/c nude mice); assay type: in vivo, mouse; settings: 3 weeks
Method: (§1) Balb/c Nude mice, 5-6 weeks old, were inoculated with 1×10^7 Huh7 cells in 0.2 ml volume of Matrigel/DMEM mix. Since not every mouse developed a tumor after the inoculation of HCC cells, only those with visible tumors (about 8 weeks after inoculation) were used for subsequent experiment. The tumor-bearing mice were randomly divided to the control and the treatment group. (n=3), respectively. Mice in the treatment group had free access to drinking water containing DBZIM (2 grams/liter) only, while mice in the control group had free access to Water only. The compound treatment lasted for 3 weeks. The tumor size was measured weekly, and the tumor volume was calculated using the formula: 0.52×width^2×length.
as §1, with “group” for “group.”, “compound 9 (IBN-9) at 0.6 g/l or 1.5 g/l” for “DBZIM (2 grams/liter)”, “water” for “Water”

HLE cells [5] = test: Annexin V staining and flow cytometry, HLE; assay type: cell-based, human; settings: 24 hr, TRAIL 100 ng/ml
Method: (§2) FIG. 22. […] HLE or HepG2 cells were incubated with DBZIM of various concentrations for 6 hr, and assayed for caspase 3/7 activity and LDH releasing (expressed as % toxicity). DBZIM induced apoptosis as characterized by annexin V staining using flow cytometer in HLE (E) and HepG2 (F). Scatter plot and histogram gave the representative information on the cell population distribution while bar graphs quantified the percentage of apoptotic cells from the histogram. HLE and HepG2 cells were treated by DBZIM of various concentrations for 24 hr before harvesting for annexin V staining and flow cytometric analysis.
(§3) HLE and HepG2 cells were treated with various concentrations of DBZIM or TRAIL (100 ng/ml) for 24 hr, harvested and labeled with Annexin V-FITC (BioVision, CA, USA). The labeled cells were analysed by flow cytometry FACSCalibur ([…], NJ, USA) and CellQuest software. Cells showing green staining in the plasma membrane were considered as apoptotic cells.

HepG2 cells = test: Annexin V staining and flow cytometry, HepG2; assay type: cell-based, human; settings: HepG2, 24 hr; TRAIL 100 ng/ml
Method: as §2, §3

Question: Cc1n(Cc2ccccc2)cc[n+]1Cc1ccccc1.[Br-] [compound C, 1,3,-Dibenzyl-2-methylimidazolium bromide] was tested. Which IC50 (MKN 28) did it give?
Answer: Its IC50 is 35 µM.

Question: What about the IC50 (MDAMB231) of the same molecule?
Answer: Its IC50 is 35 µM.

Question: And the “IC50 in normal breast epithelial cells” value (MCF-10A)?
Answer: The value was “no IC50”.

Question: Which IC50 (HLE cells [1]; 72 h) does the source give for Cc1n(Cc2ccccc2)cc[n+]1Cc1ccccc1C(F)(F)F.[Cl-] [IBN-25, 1-benzyl-3-(2-trifluoromethylbenzyl)-2-methylimidazolium chloride] here?
Answer: Its IC50 is 30 µM.

Question: What about the IC50 (HLE cells [1]; 120 h) of the same molecule?
Answer: The IC50 was 35 µM.

Question: What about the “cells in the S phase” value (HLE cells [2]; at respective IC-50, control 24%) of the same molecule?
Answer: The value was 14.3%.

Question: And the “cells in the G2/M phase” value (HLE cells [2]; at respective IC-50, control 30%)?
Answer: The value was 19.4%.

Question: And the “cells in the G1 phase” value (HLE cells [2]; at respective IC-50, control 50%)?
Answer: Its value is 34.5%.

Question: And the “activation and cleavage of caspase 3, caspase 9 and PARP” value [3]?
Answer: Its value is “induced significant activation and cleavage”.

Question: And the “anti-apoptotic gene BCl-2 expression” value [4]?
Answer: The value was “significantly down regulated”.

Question: What about the “cell proliferation genes (Mcl1, Egr1, Foxo3, Jun, Mdm4, Nf1, Prm1D, Sesn1, E2f11, Prkca, Brca1)” value [4] of the same molecule?
Answer: Its value is “significantly down regulated”.

Question: And the “increase of ATM gene expression vs control” value ([4]; IBN-19 90 uM, IBN-24 90 uM, IBN-25 40 uM)?
Answer: Its value is 9 folds.

Question: For CC(=O)Oc1ccc(Cn2cc[n+](-c3c(C)cc(C)cc3C)c2)cc1.[Cl-] [compound 9, 1-(2,4,6-trimethylphenyl)-3-(4-acetate-benzyl)-imidazolium chloride], which “reduction of tumor volume” value (Huh7 cells; 0.6 g/l in drinking water) is on record?
Answer: Its value is 43%.

Question: What about the “body weight or gross pathology” value (Huh7 cells; 0.6 g/l or 1.5 g/l in drinking water) of the same molecule?
Answer: The value was “No change in body weight or gross pathology”.

Question: And the “reduction of tumor volume” value (Huh7 cells; 1.5 g/l in drinking water)?
Answer: Its value is 62%.

Question: And the IC50 (MKN 28)?
Answer: Its IC50 is 10 µM.

Question: What about the IC50 (MDAMB231) of the same molecule?
Answer: Its IC50 is 20 µM.

Question: What about the “IC50 in normal breast epithelial cells” value (MCF-10A) of the same molecule?
Answer: Its value is “no IC50”.

B1: TRAIL: TNF-Related Apoptosis Inducing Ligand, used as a positive control for apoptosis (protein, UniProt P50591 1-281, looked up)
Tumor necrosis factor ligand …: MAMMEVQGGPSLGQTCVLIVIFTVLLQSLCVAVTYVYFTNELKQMQDKYSKSGIACFLKEDDSYWDPNDEESMNSPCWQVKWQLRQLVRKMILRTSEETISTVQEKQQNISPLVRERGPQRVAAHITGTRGRSNTLSSPNSKNEKALGRKINSWESSRSGHSFLSNLHLRNGELVIHEKGFYYIYSQTYFRFQEEIKENTKNDKQMVQYIYKYTSYPDPILLMKSARNSCWSKDAEYGLYSIYQGGIFELKENDRIFVSVTNEHLIDMDHEASFFGAFLVG
Question: Which “apoptosis (annexin V staining)” value (HLE cells [5]) does the source give for B1 here?
Answer: Its value is “not in HLE cells”.

Question: And the “apoptosis (annexin V staining)” value (HepG2 cells)?
Answer: Its value is “only induced apoptosis in HepG2”.
